Series [1] has as its target FGFR1 (Homo sapiens (Human), UniProt P11362). The experiment in a line: TR-FRET kinase inhibition assay, FGFR1. The settings on record: ATP Km concentration (30 μM). In kind it is biochemical. The procedure:
(§1) To measure the IC50 values of the compounds against FGFR1, FGFR2, FGFR3, FGFR4, and FGFR2 V564F at ATP Km concentrations by TR-FRET method.
(§2) TR-FRET (time-resolved fluorescence resonance energy transfer) method was used to detect the inhibitory activity of the compounds on FGFR1, FGFR2, FGFR3, FGFR4, and FGFR2 V564F kinase region fragments. The highest detection concentration of the compounds in 5 kinase experiments was 1000 nM, which was diluted in 3 folds, with a total of 11 concentrations (1000 nM to 0.017 nM). A kinase buffer (50 mM HEPES pH 7.5, 1 mM EGTA, 10 mM MgCl2, 2 mM DTT, and 0.01% Tween-20) was used to prepare 4× enzyme solution, 4× compound solutions diluted in gradient, and a 2×ATP/Peptide substrate solution. To a 384-well plate, 2.5 μL of enzyme solution and 2.5 μL of diluted […] compound solution were added, and 5 μL of 2×ATP/Peptide substrate solution was then added. After reacting at room temperature for 60 minutes for FGFR1, FGFR2, FGFR3, and FGFR2 V564F kinases, and 120 minutes for FGFR4 kinase, 10 μL of a 2× termination and detection mixed liquid prepared with 1×LANCE detection buffer with an EDTA concentration of 20 mM and a Europium-anti-phosphotyrosine (PT66) concentration of 2 nM was added to each well of the plate. After reacting at room temperature for 60 minutes for FGFR1, FGFR2, FGFR3, and FGFR4, and 30 minutes for FGFR2 V564F, the fluorescence signal value in each well of the plate was measured by a microplate reader.
(§3) 1) Inhibition rate (%): Calculation was performed on the raw data (665 nm/620 nm reading ratio) according to the following formula to obtain the inhibition rate. Inhibition rate %=[(mean value in positive control well−value in sample well)/(mean value in positive control well−mean value in negative control well)]×100, wherein the positive control well was a reaction well without a compound […], and the negative control well was a reaction wells without an enzyme.
(§4) 2) Curve fitting: Log(inhibitor) vs. response—Variable slope (four parameters) in GraphPad Prism 6 was used for fitting equation analysis of the compound concentration and the corresponding inhibition rate, and the curve was fitted to obtain the IC50 values of the compounds.
For orientation: TR-FRET usually uses a lanthanide donor and a delayed reading to cut background.

Series [2] deals with FGFR2 (Homo sapiens (Human), UniProt P21802). The experiment in a line: TR-FRET kinase inhibition assay, FGFR2. It counts as biochemical. Particulars: ATP Km concentration (30 μM). The procedure:
as §1, §2, §3, §4

Series [3] addresses FGFR2 V564F (Homo sapiens (Human), UniProt P21802, V564F). The experiment in a line: TR-FRET kinase inhibition assay, FGFR2 V564F. It counts as biochemical. The settings on record: ATP Km concentration (20 μM). The procedure: as §1, §2, §3, §4
Series [4] deals with NCI-H716 cells. Put plainly: CellTiter-Glo cell proliferation inhibition, NCI-H716. In kind it is cell-based. The settings on record: Homo sapiens, 72 h, read-out: NCI-H716 cell proliferation inhibition rate IC50. The procedure: (§5) To evaluate inhibitory effects of the compounds on the proliferation of NCI-H716, SNU-16 and BaF3-FGFR2-BICC1 V564F cells by cell proliferation inhibition experiments.
(§6) CellTiter-Glo method was used to detect inhibitory effects of the compounds on the proliferation of NCI-H716, SNU-16 and BaF3 FGFR2-BICC1 V564F cells. The highest detection concentration of the compounds was 1000 nM, which was diluted in 3 folds, with a total of 9 concentrations (1000 nM to 0.15 nM). After the cells were plated at an appropriate density, compounds were added the next day and incubated for 72 h before detection using the […] detection kit.
(§7) 1) Inhibition rate (%): Inhibition rate %=[(mean value in positive control well−value in sample well)/(mean value in positive control well−mean value in negative control well)]×100, wherein the positive control well was a reaction well without a compound […], and the negative control well was a reaction wells without an enzyme.
as §4
In general terms: In ATP-based viability assays light output follows the ATP content of the culture.

Series [5] relates to BaF3 FGFR2-BICC1 V564F cells. Put plainly: CellTiter-Glo cell proliferation inhibition, BaF3 FGFR2-BICC1 V564F. It counts as cell-based. The settings on record: Mus musculus, 72 h, read-out: BaF3 FGFR2-BICC1 V564F inhibitory activity IC50. The procedure: as §5, §6, §7, §4
The nature of series [6]: Pharmacokinetic experiment in SD rats after oral administration. In kind it is in vivo. Particulars: 5 mg/kg, plasma; for AUC(0-t) / AUC(0-inf) / half-life / MRT / Cmax: male, Sprague-Dawley (SD), rat, po; for AUC(0-t): read-out: Area under the curve AUC0-t; for AUC(0-inf): read-out: Area under the curve AUC0-∞; for half-life: read-out: Half-life t1/2 (converted); for MRT: read-out: Mean residence time MRT; for Cmax: read-out: Plasma concentration Cmax; for Time to peak tmax: p.o. The procedure:
To study the pharmacokinetic behavior of the compounds of the present invention in the rat body (plasma) after oral administration at a dose of 5 mg/kg using SD rats as test animals.
3 SD rats/group, male, from Shanghai Jiesijie Experimental Animal Co., Ltd., animal production license number (SCXK (Shanghai) 2013-0006 N0.311620400001794).
PO, 10% solutol HS15-0.5% CMC-Na was dissolved by ultrasound and prepared into a clear solution or homogeneous suspension.
3 SD rats/group, male; p.o. respectively at a dose of 5 mg/kg and an administration volume of 10 mL/kg after the […] were fasted overnight.
After oral administration to rats, at 0.25, 0.5, 1, 2, 4, 6, 8 and 24 hours, 0.2 mL of blood was collected from the jugular vein, placed in an EDTA-K2 test tube, centrifuged at 6000 rpm for 6 min at 4° C. to separate the plasma, which was stored at −80° C.
1) 100 μL of acetonitrile was added to 20 μL of plasma sample for pelleting, and it was mixed and centrifuged at 3500×g for 5-20 min.
2) The treated supernatant solution was taken and subjected to LC/MS/MS to analyze the concentrations of the test compounds. LC/MS/MS analysis instrument: AB Sciex API 4000 Qtrap.
• Liquid phase conditions: Shimadzu LC-20AD pump • Chromatographic column: Waters Xbridge C18 5 μm, 4.6×50 mm mobile phase: liquid A was 0.1% aqueous formic acid solution, and liquid B was methanol • Flow rate: 1.0 mL/min • Elution time: 0-4.0 min, the eluent was as follows: […]

These results are taken from patent US20250152564A1, “PROPYLENE KETONE-CONTAINING BIOINHIBITOR, PREPARATION METHOD THEREFOR, AND USE THEREOF” (SHANGHAI HANSOH BIOMEDICAL CO., LTD., priority 2022, published 2025).

A word on the MRT: it is the average time that molecules of a dose stay in the body.

pIC50: −log10 of the molar value.

Sequence of FGFR2 V564F (P21802 481-770 V564F): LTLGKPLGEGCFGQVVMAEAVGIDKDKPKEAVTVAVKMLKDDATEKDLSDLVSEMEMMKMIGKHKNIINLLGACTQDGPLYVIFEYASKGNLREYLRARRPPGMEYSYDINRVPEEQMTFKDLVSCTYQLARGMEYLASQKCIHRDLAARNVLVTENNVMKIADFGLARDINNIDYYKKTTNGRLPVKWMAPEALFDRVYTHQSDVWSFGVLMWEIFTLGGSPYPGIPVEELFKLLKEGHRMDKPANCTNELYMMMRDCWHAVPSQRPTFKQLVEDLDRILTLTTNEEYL
Sequence of FGFR1 (P11362 478-767): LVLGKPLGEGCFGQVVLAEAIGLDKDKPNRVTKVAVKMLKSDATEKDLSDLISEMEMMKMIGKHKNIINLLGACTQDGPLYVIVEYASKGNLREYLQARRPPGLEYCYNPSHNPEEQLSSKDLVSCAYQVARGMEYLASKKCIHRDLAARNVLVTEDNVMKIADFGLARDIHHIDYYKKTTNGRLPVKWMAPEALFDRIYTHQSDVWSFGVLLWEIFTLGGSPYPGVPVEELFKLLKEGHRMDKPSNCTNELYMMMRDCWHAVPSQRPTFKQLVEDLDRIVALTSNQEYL
Sequence of FGFR2 (P21802 481-770): as the sequence (P21802 481-770 V564F) above, with F84V counted along it

Regarding `C=CC(=O)N1CC[C@H](n2nc(C#Cc3ccc4c(c3)ncn4CC)c3c(N)ncc(C(=O)C4CC4)c32)C1` [Example 58, (S)-1-(3-(4-amino-7-(cyclopropanecarbonyl)-3-((1-ethyl-1H-benzo[d]imidazol-5-yl)ethynyl)-1H-pyrazolo[4,3-c]pyridin-1-yl)pyrrolidin-1-yl)prop-2-en-1-one], the pIC50 in series [1] was 8.52; in series [2], 8.92; in series [3] it was 9.30; in series [4] it was 8.71; in series [5] it was 9.40.
The corresponding values for `C=CC(=O)N1CC[C@H](n2nc(C#Cc3ccc4csnc4c3)c3c(N)ncc(C(C)=O)c32)C1` [Example 89, (S)-1-(3-(7-acetyl-4-amino-3-(benzo[c]isothiazole-6-ethynylene)-1H-pyrazolo[4,3-c]pyridin-1-yl)pyrrolidine-1-methyl)prop-2-en-1-one] are 8.57, 9.40, 9.15, 9.03 and 8.80.
As to `C=CC(=O)N1CC[C@H](n2nc(C#Cc3ccc4cn(C)nc4c3)c3c(N)ncc(C(=O)C4CC4)c32)C1` [Example 84, (S)-1-(3-(4-amino-7-(cyclopropanecarbonyl)-3-((2-methyl-2H-indazol-6-yl)ethynyl)-1H-pyrazolo[4,3-c]pyridin-1-yl)pyrrolidin-1-yl)prop-2-en-1-one], the pIC50 in series [1] is 9.00; in series [2], 9.30; in series [3] it was 9.52; in series [4], 8.98; in series [5], 10.00.
Take `C=CC(=O)N1CC[C@H](n2nc(C#Cc3cc4ncn(C)c4cc3F)c3c(N)ncc(C(C)=O)c32)C1` [Example 8, (S)-1-(3-(7-acetyl-4-amino-3-((6-fluoro-1-methyl-1H-benzo[d]imidazol-5-yl)ethynyl)-1H-pyrazolo[4,3-c]pyridin-1-yl)pyrrolidin-1-yl)prop-2-en-1-one]: the pIC50 in series [4] was 8.76; in series [5] it was 9.40.
Take `C=CC(=O)N1CC[C@H](n2nc(C#Cc3ccn4ccnc4c3)c3c(N)ncc(C(C)=O)c32)C1` [Example 77, (S)-1-(3-(7-acetyl-4-amino-3-(imidazo[1,2-a]pyridine-7-ethynylene)-1H-pyrazolo[4,3-c]pyridin-1-yl)pyrrolidine-1-methyl)prop-2-en-1-one]: the pIC50 in series [2] was 8.74; in series [3] it was 8.85; in series [4], 9.04; in series [5] it was 8.54.
`C=CC(=O)N1CC[C@H](n2nc(C#Cc3ccc4csnc4c3)c3c(N)ncc(C(=O)CC)c32)C1` [Example 90, (S)-1-(3-(4-amino-3-(benzo[c]isothiazole-6-ethynylene)-7-propionyl-1H-pyrazolo[4,3-c]pyridin-1-yl)pyrrolidine-1-methyl)prop-2-en-1-one]: the pIC50 in series [2] was 8.80; in series [3], 8.51; in series [4], 9.01; in series [5], 8.49.
In series [3], `C=CC(=O)N1CC[C@H](n2nc(C#Cc3cc4ncn(C5CC5)c4cc3Cl)c3c(N)ncc(C(=O)CC)c32)C1` [Example 45, (S)-1-(3-(4-amino-3-((6-chloro-1-cyclopropyl-1H-benzo[d]imidazol-5-yl)ethynyl)-7-propionyl-1H-pyrazolo[4,3-c]pyridin-1-yl)pyrrolidin-1-yl)prop-2-en-1-one] had a pIC50 of 9.15. The pIC50 in series [4] is 8.74. Besides, the pIC50 in series [5] is 9.22. In addition, in series [6], the AUC(0-t) worked out at 1440 ng·h/mL, the AUC(0-inf) was determined as 1460 ng·h/mL, the half-life is 4.3 h and the MRT came to 4.59 h. Moreover, in series [6], the Cmax was 290 ng/mL and the Time to peak tmax amounted to 2 h.
In the case of `C=CC(=O)N1CC[C@H](n2nc(C#Cc3cc4ncn(C)c4cc3F)c3c(N)ncc(C)c32)C1` [Example 18, (S)-1-(3-(4-amino-3-((6-fluoro-1-methyl-1H-benzo[d]imidazol-5-yl)ethynyl)-7-methyl-1H-pyrazolo[4,3-c]pyridin-1-yl)pyrrolidin-1-yl)prop-2-en-1-one], the pIC50 in series [4] was 8.74.
With `C=CC(=O)N1CC[C@H](n2nc(C#Cc3ccc4c(c3)ncn4C3CC3)c3c(N)ncc(C(=O)CC)c32)C1` [Example 39, (S)-1-(3-(4-amino-3-((1-cyclopropyl-1H-benzo[d]imidazol-5-yl)ethynyl)-7-propionyl-1H-pyrazolo[4,3-c]pyridin-1-yl)pyrrolidin-1-yl)prop-2-en-1-one], in series [1], the pIC50 was 8.21. Also, the pIC50 in series [2] is 8.77. Further, in series [3], the pIC50 was 9.22. Besides, the pIC50 in series [5] is 8.66. Moreover, in series [6], the AUC(0-t) stood at 4190 ng·h/mL, the AUC(0-inf) stood at 4240 ng·h/mL, the half-life is 1 h and the MRT is 2.63 h. Moreover, in series [6], the Cmax amounted to 1250 ng/mL and the Time to peak tmax came to 2 h.
Regarding `C=CC(=O)N1CC[C@H](n2nc(C#Cc3cc4ncn(C)c4cc3F)c3c(N)ncc(-c4nccs4)c32)C1` [Example 9, (S)-1-(3-(4-amino-3-((6-fluoro-1-methyl-1H-benzo[d]imidazol-5-yl)ethynyl)-7-(thiazol-2-yl)-1H-pyrazolo[4,3-c]pyridin-1-yl)pyrrolidin-1-yl)prop-2-en-1-one], the pIC50 was 8.66 in series [2], 9.00 in series [3], 8.74 in series [4] and 8.80 in series [5].
On to `C=CC(=O)N1CC[C@H](n2nc(C#Cc3cc4nc(C)n(C5CC5)c4cc3Cl)c3c(N)ncc(C(C)=O)c32)C1` [Example 54, (S)-1-(3-(7-acetyl-4-amino-3-((6-chloro-1-cyclopropyl-2-methyl-1H-benzo[d]imidazol-5-yl)ethynyl)-1H-pyrazolo[4,3-c]pyridin-1-yl)pyrrolidin-1-yl)prop-2-en-1-one], for which the pIC50 in series [1] is 8.26; in series [2] it was 8.47; in series [3], 9.05; in series [5], 8.66.
